Where two headings read alike, the source gives them in different places.
What was measured:
[1] = Allometry and prediction of human exposure and PK parameters; details: allometry from mouse and dog PK
Protocol: From the variety of CL, Vd and T1/2 determined in the animal studies, the highest and lowest values for each species were retained, and allometry was conducted on all the combinations to obtain a range for each predicted human PK parameter.
The missing input parameters were dealt with as follows. Regarding blood:plasma concentration ratio, the frequent default values of 1.0 and 0.8 were considered and found to make no difference to the outputs, so it was left at 1.0. Plasma protein binding: a free fraction fup of 1 was considered in order to estimate the highest C5 min values.

[2] = Extended single-dose toxicity study including safety pharmacology endpoints, i.v. bolus (GLP); type: in vivo, beagle dogs; details: for tlast: median; for half-life / clearance / AUC(0-t) / level at 5 min / Vd: beagle, plasma; for half-life: harmonic mean; for level at 5 min: read-out: C5 min; for Vd: read-out: Vss
Protocol: The following parameters and endpoints were evaluated: mortality, clinical observations, body weights, food consumption, body temperature, local reactions, ophthalmology, clinical pathology parameters (hematology, coagulation, clinical chemistry, and urinalysis), cardiovascular and respiratory safety pharmacology endpoints along with FOB evaluation, organ weights, and macroscopic and microscopic examinations, and TK parameters. The animals from subset A (3 males and 3 females per group) were sampled for toxicokinetics (TK) at: pre-dose, 5 min, 15 min, 30 min, 1 h, 2 h, 3 h and 6 h. Blood samples were collected in K2EDTA tubes. Plasma was prepared by centrifugation (2500 g for 10 minutes, +4° C.) within 1 hour after collection, and then frozen within 1 hour after centrifugation and stored at −80° C. […] Chromatographic separation was achieved using a Waters Acquity UPLC system with a Waters Acquity HSS T3 C18 2.1×50 mm, 1.8 μm column. Chromatography was conducted at 50° C. at a flow rate of 0.7 mL/min using a mobile phase consisting of A: 1% formic acid in acetonitrile, and B: 1% formic acid in water, according to the following linear gradient: 0 to 0.1 min: 90% B; 0.1 to 4.1 min: from 90% B to 74% B; 4.1 to 4.2 min: from 74% B to 5% B; 4.2 to 4.6 min: 5% B; 4.6 to 4.7 min: from 5% B to 90% B; 4.7-5.1 min; 90% B. Detection was performed using a Sciex API6600 TOF mass spectrometer. Toxicokinetic parameters were estimated from concentration-time data using Phoenix pharmacokinetic software (version 6.4, Certara L. P.). A non-compartmental approach consistent with the bolus intravenous injection was used for parameter estimation.
The test item treatment led to unaffected body weights, weight gains, and food intake. Likewise, no treatment-related abnormalities were reported during ophthalmic examinations, urinalysis, blood biochemistry, coagulation, and hematology investigations. There were no related organ weight changes and macroscopic and microscopic observations at early and late necropsies. Jacketed external telemetry was used to evaluate the potential cardiovascular and respiratory effects in the Subset B. Cardiorespiratory telemetry recordings were performed during the pre-test, Day 1 and 14. The electrocardiogram (ECG) parameters (heart rate, PQ interval duration, QRS complex duration, and QT interval duration) were collected continuously after dosing over 10-minute periods up to 6 h and over 15-minute periods up to 24 h. Miyazaki's QT correction method (Miyazaki, H. & Tagawa, M. Japanese Association for Laboratory Animal Science 2002, 51, 465-75) was used to correct the influence of heart rate. […] Arterial blood pressure parameters (systolic and diastolic blood pressure and mean arterial pressure) were measured continuously during consecutive 30-minute periods at pre-dose and for up to 6 h after dosing and over consecutive 60-minute periods up to 24 h after dosing. The respiratory rate was monitored on the pre-test, Day 1 and Day 14 at 0.5, 1, 2, 3, 4, 6, 8, 12, 16, 20, and 24 h. […] The potential effects on central nervous system parameters were evaluated under restrained and non-restrained conditions using a FOB in Subset A. Neurologic, autonomic, and behavioral investigations were performed in the pre-test, pre-dose, and 1 hour after dosing on Day 1.

[3] = dog, iv, 16 ug/kg, Female, 16 μg/kg single i.v. bolus, mean n = 3
[4] = dog, iv, 16 ug/kg, Male, 16 μg/kg single i.v. bolus, mean n = 3
[5] = dog, iv, 80 ug/kg, Female, 80 μg/kg single i.v. bolus, mean n = 3
[6] = dog, iv, 80 ug/kg, Male, 80 μg/kg single i.v. bolus, mean n = 3
[7] = dog, iv, 400 ug/kg, Female, 400 μg/kg single i.v. bolus, mean n = 3
[8] = dog, iv, 400 ug/kg, Male, 400 μg/kg single i.v. bolus, mean n = 3

CC(C)C[C@@H]1NC(=O)[C@H](Cc2cccc(NC(=O)CCCS(N)(=O)=O)c2)NC(=O)[C@H](CC(=O)O)NC(=O)[C@H]2CCCN2C(=O)[C@H](CCC(=O)O)NC(=O)[C@@H](NC(=O)[C@H](CCC(N)=O)NC(=O)CN2CCN(C(=O)CN3CCN(CC(=O)O)CCN(CC(=O)O)CCN(CC(=O)O)CC3)CC2)CSCc2cccc(c2)CSC[C@@H](C(N)=O)NC(=O)[C@H](CO)NC(=O)[C@H](Cc2c[nH]c3ccccc23)NC(=O)[C@H]([C@@H](C)O)NC1=O [DPI-4452, DOTA-PPAc-Gln-[Cys(3MeBn)-Glu-pro-Asp-Af3(Cpsu)-Leu-Thr-Trp-Ser-Cys]-NH2]
predicted human clearance (CL) [1]: 3.57 to 13.0 mL/min/kg | predicted human terminal half-life (T1/2) [1]: 10.2 to 88.2 min | predicted human volume of distribution (Vd) [1]: 0.189 to 0.455 L/kg | human equivalent dose of the NOAEL ([2]; 60 kg human): 13.3 mg | central nervous system effects (FOB) ([2]; 1 hour after dosing, 16, 80, 400 μg/kg): No effects were observed on the central nervous system | tlast ([2]; Female, 16 μg/kg single i.v. bolus): 1 h | tlast ([2]; Female, 80 μg/kg single i.v. bolus): 3 h | AUClast ([2]; Female, 400 μg/kg single i.v. bolus, mean n = 3): 771 ng·h/mL | tlast ([2]; Female, 400 μg/kg single i.v. bolus): 3 h | tlast ([2]; Male, 16 μg/kg single i.v. bolus): 1 h | tlast ([2]; Male, 80 μg/kg single i.v. bolus): 2 h | AUClast ([2]; Male, 400 μg/kg single i.v. bolus, mean n = 3): 854 ng·h/mL | tlast ([2]; Male, 400 μg/kg single i.v. bolus): 3 h | tolerability ([2]; beagle dogs, single i.v. bolus up to 400 μg/kg): well tolerated | half-life ([2]; dog, iv, 16 ug/kg, Female, 16 μg/kg single i.v. bolus): 14.3 min | clearance [2, 3]: 21.2 mL/min/kg | AUC(0-t) ([2]; dog, iv, 16 ug/kg, Female, 16 μg/kg single i.v. bolus, mean n = 3, read-out: AUClast): 12.4 ng·h/mL | level at 5 min [2, 3]: 37.7 ng/mL | Vd [2, 3]: 0.3 L/kg | half-life ([2]; dog, iv, 16 ug/kg, Male, 16 μg/kg single i.v. bolus): 15.5 min | clearance [2, 4]: 18.3 mL/min/kg | AUC(0-t) ([2]; dog, iv, 16 ug/kg, Male, 16 μg/kg single i.v. bolus, mean n = 3, read-out: AUClast): 14 ng·h/mL | level at 5 min [2, 4]: 43.5 ng/mL | Vd [2, 4]: 0.26 L/kg | half-life ([2]; dog, iv, 80 ug/kg, Female, 80 μg/kg single i.v. bolus): 23.2 min | clearance [2, 5]: 9.27 mL/min/kg | AUC(0-t) ([2]; dog, iv, 80 ug/kg, Female, 80 μg/kg single i.v. bolus, mean n = 3, read-out: AUClast): 144 ng·h/mL | level at 5 min [2, 5]: 346 ng/mL | Vd [2, 5]: 0.21 L/kg | half-life ([2]; dog, iv, 80 ug/kg, Male, 80 μg/kg single i.v. bolus): 21.7 min | clearance [2, 6]: 10.1 mL/min/kg | AUC(0-t) ([2]; dog, iv, 80 ug/kg, Male, 80 μg/kg single i.v. bolus, mean n = 3, read-out: AUClast): 132 ng·h/mL | level at 5 min [2, 6]: 332 ng/mL | Vd [2, 6]: 0.21 L/kg | half-life ([2]; dog, iv, 400 ug/kg, Female, 400 μg/kg single i.v. bolus): 21.8 min | clearance [2, 7]: 8.63 mL/min/kg | level at 5 min [2, 7]: 1760 ng/mL | Vd [2, 7]: 0.19 L/kg | half-life ([2]; dog, iv, 400 ug/kg, Male, 400 μg/kg single i.v. bolus): 23.7 min | clearance [2, 8]: 7.88 mL/min/kg | level at 5 min [2, 8]: 1840 ng/mL | Vd [2, 8]: 0.19 L/kg | NOAEL at 14 days ([2]; both sexes, dog, in vivo, iv, beagle dogs, single i.v. bolus): 0.4 mg/kg | AUC(0-t) ([2]; female, dog, iv, 400 ug/kg, females, 400 μg/kg i.v., read-out: mean AUCtlast at the NOAEL): 771 ng·h/mL | cardiovascular and respiratory safety pharmacology ([2]; jacketed external telemetry, 16, 80, 400 μg/kg): no related effect on cardiovascular or respiratory parameters | AUC(0-t) ([2]; male, dog, iv, 400 ug/kg, males, 400 μg/kg i.v., read-out: mean AUCtlast at the NOAEL): 854 ng·h/mL | NOAEL cover of the predicted human dose ([2]; total ligand mass dose 500 μg/patient): more than 25 times
